The test system of data set [1] is cellular dehydrogenase activity.
Data set [2] has as its system mitochondrial membrane potential. The class given is cell-based, mouse.
The next data set concerns reactive oxygen species. It is filed as cell-based, mouse.
The next data set has as its system cytochrome c. It is filed as cell-based, mouse.
The mark [3] stands for this setting: Table 4, C2C12 myotubes, 48 h, composite Z-score.
The mark [4] stands for this setting: Table 4, C2C12 myotubes, 48 h, JC-1, composite Z-score.
Setting [5] is: composite Z-score vs mock-treated (DMSO) wells, concentration of each compound in μM.

Where “and” joins values, the source holds several entries; their conditions need not be identical. Equal entries are not always repeated. Where two headings read alike, the source gives them in different places.

In data set [1] (setting [3]), `COc1cc2c(cc1OC)[C@@H]1C(=O)c3ccc4c(c3O[C@@H]1CO2)C=CC(C)(C)O4` [deguelin(−), reference compound] had an MTT of −4.052. Further, the Viability in the data set on C2C12 myotubes (setting [3]) is recorded as −0.940. Besides, the ΔΨm in data set [2] (setting [4]) worked out at 1.451. Moreover, the ROS in the data set with reactive oxygen species (setting [3]) worked out at 0.426. The compound `Oc1ccc([C@H]2Oc3cc(O)cc(O)c3C[C@H]2O)cc1` [epiafzelechin(2r,3r)(−), reference compound] registered an MTT in data set [1] (setting [3]) of −0.486. This compound also had a Viability in the data set on C2C12 myotubes (setting [3]) of −0.719. The same compound showed a ΔΨm in data set [2] (setting [4]) of −3.118. Moreover, in the data set with reactive oxygen species (setting [3]), the ROS is 1.019. In turn, `COc1ccc2cc([C@@H](C)C(=O)[O-])ccc2c1.[Na+]` [(R)-naproxen sodium salt] registered an MTT in data set [1] of 0.325. The Viability in the data set with C2C12 myotubes was found to be 0.632. The compound further registered a ΔΨm in data set [2] of −0.253. Further, the cyt c with cytochrome c turned out to be 0.444. Besides, in the data set with reactive oxygen species, the ROS is on record as −0.736. Take `C[C@@H]1CC[C@@]23CCC4(C)[C@@](C=CC5[C@@]6(C)CC[C@H](O)C(C)(C)C6CC[C@]54C)(OC2=O)C3[C@H]1C` (stereo partly drawn) [dehydro (11,12)ursolic acid lactone]: the MTT in data set [1] is reported as 0.402. In addition, the Viability in the data set on C2C12 myotubes is −0.003. Moreover, in data set [2], the ΔΨm was −0.429. In the data set with cytochrome c (normalized composite Z-score vs mock-treated (DMSO) wells, Conc 20 μM), this compound displayed a cyt c of −0.175. For the same compound, the ROS in the data set with reactive oxygen species worked out at 0.385. Consider `Cc1cc(NS(=O)(=O)c2ccc(N)cc2)no1` [sulfamethoxazole], for which the ROS in the data set with reactive oxygen species is recorded as 1.114. For `C[C@]12CC[C@@H](O)C[C@H]1CC[C@@H]1[C@@H]2CC[C@]2(C)C(=O)CC[C@@H]12` [3-alpha-hydroxy-5-beta-androstan-17-one], in data set [1], the MTT is −1.534. In data set [2], the ΔΨm is given as −1.010. This compound had a cyt c in the data set on cytochrome c of 0.285. This compound registered an ROS in the data set on reactive oxygen species of 1.400.

`C=C(C)[C@H]1Cc2c(ccc3c2O[C@@H]2COc4cc(OC)c(OC)cc4[C@@H]2C3=O)O1` [rotenone, reference compound]: the MTT activity entry in data set [1] (assay control, FIG. 3-2) was “inhibited”. For `C[C@@]1(O)CCOC(=O)C1` (racemic) [mevalonic-DL-acid lactone], the ΔΨm in data set [2] was −0.183. The cyt c in the data set with cytochrome c is on record as −0.252. The compound `CCC1(c2ccc(N)cc2)CCC(=O)NC1=O` (stereo not drawn) [para-aminoglutethimide] yielded a ΔΨm in data set [2] of −0.416. As to amyleine, the MTT in data set [1] is −0.719. In the case of `CCC(C)(C)C(=O)O[C@H]1C[C@@H](C)C=C2C=C[C@H](C)[C@H](CC[C@@H]3C[C@@H](O)CC(=O)O3)[C@H]21` [simvastatin, reference compound], in data set [1] (screen, FIG. 9a, in words), the MTT activity result is “strong decreases”. In turn, `CC1(C)S[C@@H]2[C@H](NC(=O)Cc3ccccc3)C(=O)N2[C@H]1C(=O)O.CC1(C)S[C@@H]2[C@H](NC(=O)Cc3ccccc3)C(=O)N2[C@H]1C(=O)O.c1ccc(CNCCNCc2ccccc2)cc1` [benzathine benzylpenicillin] gave a ΔΨm in data set [2] of 0.729. `C[C@]12C=CC(=O)C=C1CC[C@@H]1[C@@H]2[C@@H](O)C[C@@]2(C)[C@H]1CC[C@]2(O)C(=O)CO` [prednisolone] registered an ROS in the data set with reactive oxygen species of 0.248. trisodium ethylenediamine tetracetate displayed an MTT in data set [1] of −1.123. In the data set on C2C12 myotubes, this compound came in with a Viability of −0.946. In data set [2], this compound registered a ΔΨm of 0.474. Further, the ROS with reactive oxygen species is −0.436. In the case of `CC(=O)[C@H]1CC[C@H]2[C@@H]3CC=C4C[C@@H](O)CC[C@]4(C)[C@H]3CC[C@]12C` [pregnenolone], the ΔΨm in data set [2] was 0.542. For `N#CC(C#N)=NNc1cccc(Cl)c1` [CCCP, carbonyl cyanide m-chlorophenylhydrazone, reference compound], the mitochondrial membrane potential result in data set [2] (assay control, FIG. 3-3) is “depolarization”. On to `C[C@@H]1C[C@H]2[C@@H]3CCC4=CC(=O)C=C[C@]4(C)[C@@]3(F)[C@@H](O)C[C@]2(C)[C@@]1(O)C(=O)CO` [dexamethasone], for which, in data set [2], the ΔΨm was 0.240 and 0.273. In turn, `COc1cc(Cc2cnc(N)nc2N)cc(OC)c1OC` [trimethoprim] came in with an ROS in the data set on reactive oxygen species of 1.375. Still for that read-out and setting: to `CC(C(=O)O)c1cccc(C(=O)c2ccccc2)c1` (stereo not drawn) [ketoprofen] belongs 0.545. For `OCCN(CCO)c1nc(N2CCCCC2)c2nc(N(CCO)CCO)nc(N3CCCCC3)c2n1` [dipyridamole], the Viability in the data set with C2C12 myotubes was 2.069 and 1.042. The ΔΨm in data set [2] was 0.298 and 0.474. The cyt c in the data set on cytochrome c was 0.377 and 0.276.

`CN[C@@H]1C[C@H]2O[C@@](C)([C@@H]1OC)n1c3ccccc3c3c4c(c5c6ccccc6n2c5c31)C(=O)NC4` [staurosporine, reference compound]: the “cell death (calcein)” value in the data set on C2C12 myotubes (assay control, FIG. 3-1) is reported as “cell death in a dose dependent manner”.

Consider `COC(=O)Nc1nc2ccc(SC(C)C)cc2[nH]1` [methiazole, reference compound], for which the MTT in data set [1] (setting [3]) is on record as −0.654. The compound further gave a Viability in the data set on C2C12 myotubes (setting [3]) of −0.683. Further, the ΔΨm in data set [2] (setting [4]) was 0.040. In the data set on reactive oxygen species (setting [3]), the ROS was −2.515. In the case of `CC([C@H](O)c1ccccc1)N(C)C` (stereo partly drawn) [N-methyl (−)ephedrine], in data set [2], the ΔΨm is given as −0.068.

For the compound `CCN(CC)C(=O)N[C@H]1C[C@@H]2c3cccc4[nH]cc(c34)C[C@H]2N(C)C1` [S(+)-terguride], the ΔΨm in data set [2] was −0.585. Turning to `Clc1ccccc1C(c1ccccc1)(c1ccccc1)n1ccnc1` [clotrimazole], in the data set on C2C12 myotubes, the Viability worked out at 0.099. In the data set with reactive oxygen species, the ROS is 2.521. On to methyl benzethonium chloride, for which the MTT in data set [1] is −4.304. Further, the Viability in the data set with C2C12 myotubes is on record as −2.690. In addition, the ΔΨm in data set [2] is recorded as 0.480. Moreover, the ROS in the data set on reactive oxygen species was −1.501. For `CC(C)[N+]1(C)[C@@H]2CC[C@H]1C[C@@H](OC(=O)C(CO)c1ccccc1)C2` (stereo partly drawn) [ipratropium], the ROS in the data set with reactive oxygen species was 1.245.

Regarding `CC(C)n1c(/C=C/C(O)CC(O)CC(=O)O)c(-c2ccc(F)cc2)c2ccccc21` (stereo not drawn) [fluvastatin, reference compound], the MTT activity result in data set [1] (screen, FIG. 9a, in words) is “strong decreases”.

`COc1ccc([C@H]2COc3c(ccc(O)c3OC)C2)c(OC)c1O` [duartin(−), reference compound] displayed an ROS in the data set on reactive oxygen species (setting [3]) of 0.900.

Regarding `CC[C@H](C)C(=O)O[C@H]1C[C@@H](C)C=C2C=C[C@H](C)[C@H](CC[C@@H]3C[C@@H](O)CC(=O)O3)[C@H]21` [lovastatin, reference compound], in data set [1], the MTT activity result is recorded as “strong decreases”. Also, the “cyt c (composite Z-score vs DMSO)” value with cytochrome c is −1.628. Take `CC1(C)S[C@@H]2[C@H](NC(=O)[C@H](N)c3ccc(O)cc3)C(=O)N2[C@H]1C(=O)O` [amoxicillin]: the ROS in the data set on reactive oxygen species stood at 1.061.

Regarding `CC(=O)O[C@]1(C(C)=O)CC[C@H]2[C@@H]3C=C(C)C4=CC(=O)CC[C@]4(C)[C@H]3CC[C@@]21C` [megestrol acetate], the cyt c in the data set with cytochrome c (setting [5]) was 0.810. With `CN(CCCCCCCCCCN(C)C(=O)Oc1cccc([N+](C)(C)C)c1)C(=O)Oc1cccc([N+](C)(C)C)c1` [demecarium], the cyt c in the data set with cytochrome c (setting [5]) is on record as −0.211. `COc1c(O)cc2c(c1O)[C@@H]1O[C@H](CO)[C@@H](O)[C@H](O)[C@H]1OC2=O` [bergenin] returned a cyt c with cytochrome c (setting [5]) of 0.831.

Compound `CC1=C(CC(=O)O)c2cc(F)ccc2/C1=C\c1ccc([S+](C)[O-])cc1` (stereo not drawn) [sulindac] returned a Viability in the data set on C2C12 myotubes of 0.777.

In the data set with reactive oxygen species, `CN(C)CCCN1c2ccccc2CCc2ccc(Cl)cc21` [clomipramine] had an ROS of 0.466. On to `C[C@]12C[C@H](O)[C@H]3[C@@H](CCC4=CC(=O)CC[C@@]43C)[C@@H]1CC[C@@H]2C(=O)CO` [corticosterone], for which, in the data set with cytochrome c, the cyt c was −0.379. `Cn1cc[nH]c1=S` [methimazole]: in the data set with cytochrome c, the “cyt c (composite Z-score vs DMSO)” value stood at 1.745 and the “cyt c (composite Z-score)” value is listed as −0.372. Regarding `O=c1c(-c2ccc(O)cc2)coc2cc(O)cc(O)c12` [genistein], the “cyt c (composite Z-score vs DMSO)” value with cytochrome c was determined as 0.295. In the data set with cytochrome c (setting [5]), `COc1ccccc1N1CCN(CC(O)COc2cccc3ccccc23)CC1` (stereo not drawn) [naftopidil] showed a cyt c of 0.382. Compound `C[C@H]1CCCC(=O)CCC/C=C/c2cc(O)cc(O)c2C(=O)O1` [zearalenone] displayed a cyt c with cytochrome c (setting [5]) of −0.185. As for `CCN[C@@H]1C[C@H](N)[C@@H](O[C@H]2OC(CN)=CC[C@H]2N)[C@H](O)[C@H]1O[C@H]1OC[C@](C)(O)[C@H](NC)[C@H]1O` [netilmicin], the cyt c in the data set with cytochrome c (normalized score (composite Z-score vs DMSO mock-treated wells), compound concentration (μM)) stood at 0.156. Consider `C[C@H](CCC(=O)O)[C@H]1CC[C@H]2[C@@H]3[C@H](O)C[C@@H]4C[C@H](O)CC[C@]4(C)[C@H]3C[C@H](O)[C@]12C` [cholic acid], for which the cyt c with cytochrome c stood at 0.514. On the same count and under the same terms, as for `C[N+]1(C)CCC(OC(=O)C(O)(c2ccccc2)C2CCCC2)C1` (stereo not drawn) [glycopyrrolate], the figure is 0.260. The compound `CC(N)C(O)c1ccccc1` (stereo not drawn) [phenylpropanolamine] showed a cyt c in the data set on cytochrome c of 0.947. For the compound `CS(=O)(=O)Nc1ccc([N+](=O)[O-])cc1Oc1ccccc1` [nimesulide], in the data set on reactive oxygen species, the ROS is 1.468 and 1.174. As to `OCCN1CCN(CCCN2c3ccccc3Sc3ccc(C(F)(F)F)cc32)CC1` [fluphenazine], the “cyt c (composite Z-score vs DMSO mock-treated wells)” value with cytochrome c is given as −0.074. Regarding `CC1CCC(C(C)C)C(O)C1` (stereo not drawn) [menthol], the cyt c in the data set with cytochrome c is given as −0.074. For `CC(=O)N(CC(O)CN(C(C)=O)c1c(I)c(C(=O)NCC(O)CO)c(I)c(C(=O)NCC(O)CO)c1I)c1c(I)c(C(=O)NCC(O)CO)c(I)c(C(=O)NCC(O)CO)c1I` (stereo not drawn) [iodixanol], the cyt c with cytochrome c (setting [5]) is −0.092. As to `CN(C)CCCSC(=N)N` [dimaprit], in the data set on cytochrome c, the “cyt c (composite Z-score)” value was −0.184. Take `CC1=C(/C=C/C(C)=C/C=C/C(C)=C/C=C/C=C(C)/C=C/C=C(C)/C=C/C2=C(C)CCCC2(C)C)C(C)(C)CCC1` [beta-carotene]: the cyt c in the data set with cytochrome c is 0.027. Take (−)-MK 801: the ΔΨm in data set [2] is listed as −0.786.

Source of the values: patent US20090143279A1 (priority 2007, published 2009).
